Where “and” joins values, the source holds several entries; their conditions need not be identical. Equal values may be shown once.
System: 282377-053-R-J1-PDC complex spheroid viability
Test: Anticancer human tumor 282377-053-R-J1-PDC patient-derived colon adenocarcinoma cell line growth inhibition [POLQ]
Details: for viability, T/C: stronger effect = lower value
Protocol: Multicellular complex tumor spheroid response to Polymerase (POL) inhibitors (novobiocin, ART-558, RP6685) in combination with a variety of drugs and investigational agents in selected tumor cell lines
The POL inhibitors (novobiocin, ART-558, and RP6685) were evaluated both individually and in combination with standard of care and investigational anticancer small molecules within a complex spheroid model of solid tumors. . Complex spheroids include a stromal component modeled by human endothelial cells (HUVEC) and fibroblasts modeled by human mesenchymal stem cells (MSCs). The concentration ranges selected for each drug and investigational agent were based upon clinically achievable concentrations if the clinical Cmax of the agent was known.
Compounds. The drugs and investigational agents: novobiocin (NSC847541), ART-558 (NSC835418), RP-6685 (NSC848927), peposertib (NSC802822), ceralasertib (NSC780249), elimusertib (NSC800525), camonsertib (NSC841442), AZD-1390 (NSC803789), olaparib (NSC753686), talazoparib (NSC767125), rucaparib (NSC756644), sotorasib (NSC818433), MRTX-1133 (NSC836407), SN-38 (NSC673596), topotecan (NSC609699), epotoside (NSC141540), doxorubicin (NSC123127), gemcitabine (NSC613327), 5-fluorouracil (NSC19893), paclitaxel (NSC125973), vemurafenib (NSC761431), MSA-2 (NSC828583), SN-011 (NSC837082), adavosertib (NSC754352), prexasertib (NSC758257), carboplatin (NSC241240) and oxaliplatin (NSC266046), were obtained from the National Cancer Institute (NCI) Developmental Therapeutics Program Chemical Repository (21). The FDA-approved anticancer drug set is available from the Developmental Therapeutics Program at https://dtp.cancer.gov/organization/dscb/obtaining/. […] The stock solutions were prepared in dimethyl sulfoxide (DMSO, Sigma-Aldrich, St. Louis, MO, cat. D2650), except for the platinum compounds which were prepared in saline (Quality Biological, Gaithersburg, MD, cat. 114-055-101), at 800-fold the tested concentration and stored at -70 degrees C prior to their use. All drugs and investigational agents were tested over a range starting from a high concentration at or near the clinical Cmax and decreasing in half-log increments. If the clinical Cmax for an agent had not been determined, the highest concentration tested was 10 microM, except for SN-38, which was tested at a high concentration of 1 microM.
Cell Culture. All cells were maintained in an incubator at 37 degrees C and 5% CO2 with 95% humidity. The PDC lines were cultured according to standard operating procedures established by the NCI PDMR (https://pdmr.cancer.gov). Table 3 of the manuscript, lists the cell lines along with the number of the three cell types plated to form the mct-spheroids and media for tumor cell growth. After thawing, all PDC lines, except 997537-175-T-J1-PDC and 415267-285-R-J2-PDC, were cultured in Matrigel-coated flasks prepared with a working solution of 1X Ham's F-12 nutrient mix, without supplementation (Thermo Fisher Scientific, cat. 11765054), 100 U/mL penicillin-streptomycin (Thermo Fisher Scientific, cat. 15140122), and 2.5% Matrigel (Corning Inc., Corning, NY, cat. 354248) for the first three passages. The two PDC lines 997537-175-T-J1-PDC and 415267-285-R-J2-PDC were cultured on uncoated flasks. The 857933-349-R-J2-PDC line was cultured in 6C/Colon 1B media containing advanced DMEM/F-12 (Thermo Fisher Scientific, cat. 12634028), 10 mM HEPES (Thermo Fisher Scientific, cat. 15630080), 1X GlutaMAX supplement (Thermo Fisher Scientific, cat. 35050061), 0.1 mg/mL primocin (InvivoGen, San Diego, CA, cat. ant-pm-2), 10% defined fetal bovine serum, heat inactivated (HyClone Laboratories Inc., Logan, UT, cat. SH30070.03HI), 50% L-WRN conditioned media (ATCC, cat. CRL-3276), 1.25 mM N-Acetyl-L-cysteine (Sigma-Aldrich, cat. A9165), 10 mM nicotinamide (Sigma-Aldrich, cat. N0636), 1X B-27 supplement (Thermo Fisher Scientific, cat. 17504044), 1X N-2 supplement (Thermo Fisher Scientific, cat. […]
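Note: spheroids exposed to compounds for seven days.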
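Throughout, for viability, T/C: 100% = DMSO vehicle control viability.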

COc1cccc2c1C(=O)c1c(O)c3c(c(O)c1C2=O)CC(O)(C(=O)CO)CC3OC1CC(N)C(O)C(C)O1 (stereo not drawn) + COC1C(OC(N)=O)C(O)C(Oc2ccc3c(O)c(NC(=O)c4ccc(O)c(CC=C(C)C)c4)c(=O)oc3c2C)OC1(C)C gave an IC50 (curve of first compound, second compound 0.0316 µM) of 0.273 µM, an IC50 (curve of first compound, second compound 0.1 µM) of 0.323 µM and an IC50 (curve of first compound, second compound 0.316 µM) of 0.284 µM. For the same compound, the IC50 (curve of first compound, second compound 1 µM) was 0.386 µM, the IC50 (curve of first compound, second compound 3.16 µM) was 0.289 µM and the IC50 (curve of first compound, second compound 10 µM) was 0.378 µM. It also gave a viability, T/C (second compound 0.0316 µM, first compound 0.0316 µM) of 92.3%, a viability, T/C (second compound 0.0316 µM, first compound 0.1 µM) of 81% and a viability, T/C (second compound 0.0316 µM, first compound 0.316 µM) of 43.9%. It also gave a viability, T/C (second compound 0.0316 µM, first compound 1 µM) of 17.5%, a viability, T/C (second compound 0.0316 µM, first compound 3.16 µM) of 1.11% and a viability, T/C (second compound 0.0316 µM, first compound 10 µM) of 2.81%. It also gave a viability, T/C (second compound 0.1 µM, first compound 0.0316 µM) of 117%, a viability, T/C (second compound 0.1 µM, first compound 0.1 µM) of 82.7% and a viability, T/C (second compound 0.1 µM, first compound 0.316 µM) of 57.6%. It also gave a viability, T/C (second compound 0.1 µM, first compound 1 µM) of 16.5%, a viability, T/C (second compound 0.1 µM, first compound 3.16 µM) of 0.71% and a viability, T/C (second compound 0.1 µM, first compound 10 µM) of 2.97%. For the same compound, the viability, T/C (second compound 0.316 µM, first compound 0.0316 µM) was 95.5%, the viability, T/C (second compound 0.316 µM, first compound 0.1 µM) was 84.9% and the viability, T/C (second compound 0.316 µM, first compound 0.316 µM) was 44.9%. It also gave a viability, T/C (second compound 0.316 µM, first compound 1 µM) of 16.1%, a viability, T/C (second compound 0.316 µM, first compound 3.16 µM) of 0.67% and a viability, T/C (second compound 0.316 µM, first compound 10 µM) of 2.69%. It also gave a viability, T/C (second compound 1 µM, first compound 0.0316 µM) of 97.1%, a viability, T/C (second compound 1 µM, first compound 0.1 µM) of 88.6% and a viability, T/C (second compound 1 µM, first compound 0.316 µM) of 58%. The viability, T/C (second compound 1 µM, first compound 1 µM) was 14.3%, the viability, T/C (second compound 1 µM, first compound 3.16 µM) was 1.36% and the viability, T/C (second compound 1 µM, first compound 10 µM) was 2.91%. For the same compound, the viability, T/C (second compound 3.16 µM, first compound 0.0316 µM) was 90.2%, the viability, T/C (second compound 3.16 µM, first compound 0.1 µM) was 88.9% and the viability, T/C (second compound 3.16 µM, first compound 0.316 µM) was 44.8%. It also gave a viability, T/C (second compound 3.16 µM, first compound 1 µM) of 13.7%, a viability, T/C (second compound 3.16 µM, first compound 3.16 µM) of 0.83% and a viability, T/C (second compound 3.16 µM, first compound 10 µM) of 2.03%. For the same compound, the viability, T/C (second compound 10 µM, first compound 0.0316 µM) was 84.4%, the viability, T/C (second compound 10 µM, first compound 0.1 µM) was 76.8% and the viability, T/C (second compound 10 µM, first compound 0.316 µM) was 56.8%. The viability, T/C (second compound 10 µM, first compound 1 µM) was 16.3%, the viability, T/C (second compound 10 µM, first compound 3.16 µM) was 2.09% and the viability, T/C (second compound 10 µM, first compound 10 µM) was 3.61%.

For CC1COCCN1c1cc(C2(O)CC3CCC(C2)O3)c2cnn(-c3ccn[nH]3)c2n1 (stereo not drawn), the viability, T/C (compound 0.0316 µM) was 79.8% and 96.8% and 76.4%, the viability, T/C (compound 0.1 µM) was 77% and 69.1% and 83.1% and the viability, T/C (compound 0.316 µM) was 57.1% and 59.1% and 53.6%. The viability, T/C (compound 1 µM) was 29.4% and 34.3% and 49.3%, the viability, T/C (compound 3.16 µM) was 27.7% and 24.9% and 49.9% and the viability, T/C (compound 10 µM) was 16.7% and 22% and 41.5%. The IC50 (curve of compound) was 0.431 µM and 0.391 µM and 0.592 µM.

In the case of CC(=O)O[C@H]1C(=O)[C@@]2(C)[C@H]([C@H](OC(=O)c3ccccc3)[C@]3(O)C[C@H](OC(=O)[C@H](O)[C@@H](NC(=O)c4ccccc4)c4ccccc4)C(C)=C1C3(C)C)[C@]1(OC(C)=O)CO[C@@H]1C[C@@H]2O, the viability, T/C (compound 0.00949 µM) is reported as 93.6% and 91% and 48.6%, the viability, T/C (compound 0.03 µM) is reported as 40.4% and 58.8% and 17.8% and the viability, T/C (compound 0.0949 µM) is reported as 40.3% and 41.6% and 17.4%. The viability, T/C (compound 0.3 µM) was 42% and 47.9% and 19%, the viability, T/C (compound 0.949 µM) was 42.7% and 50.8% and 21.5% and the viability, T/C (compound 3 µM) was 47.6% and 61% and 28.4%.

For CC1COCCN1c1cc(C2(S(C)(=N)=O)CC2)nc(-c2ccnc3[nH]ccc23)n1 (stereo not drawn), the viability, T/C (compound 0.0316 µM) was 93% and 90.1% and 105%, the viability, T/C (compound 0.1 µM) was 95.7% and 96.4% and 89.9% and the viability, T/C (compound 0.316 µM) was 86.7% and 94.9% and 95.5%. The viability, T/C (compound 1 µM) was 75.4% and 89.4% and 93.3%, the viability, T/C (compound 3.16 µM) was 57.4% and 74.8% and 62% and the viability, T/C (compound 10 µM) was 46.7% and 55.4% and 47%. The IC50 (curve of compound) was 7.04 µM and > 10 µM and 7.94 µM.

In the case of C=CC(=O)N1CCN(c2nc(=O)n(-c3c(C)ccnc3C(C)C)c3nc(-c4c(O)cccc4F)c(F)cc23)C(C)C1 (stereo not drawn), the viability, T/C (compound 0.0316 µM) is reported as 90.8% and 111% and 101%, the viability, T/C (compound 0.1 µM) is reported as 96% and 93.3% and 101% and the viability, T/C (compound 0.316 µM) is reported as 82.7% and 111% and 107%. The viability, T/C (compound 1 µM) was 82.8% and 111% and 110%, the viability, T/C (compound 3.16 µM) was 94% and 105% and 101% and the viability, T/C (compound 10 µM) was 78.2% and 87% and 86.5%. For the same compound, the IC50 (curve of compound) was over 10 µM.

With C#Cc1c(F)ccc2cc(O)cc(-c3ncc4c(N5CC6CCC(C5)N6)nc(OCC56CCCN5CC(F)C6)nc4c3F)c12 (stereo not drawn) the viability, T/C (compound 0.0316 µM) was 64.6% and 97.7% and 80.6%, the viability, T/C (compound 0.1 µM) was 88.7% and 85.6% and 110% and the viability, T/C (compound 0.316 µM) was 112% and 102% and 114%. For the same compound, the viability, T/C (compound 1 µM) was 99.1% and 101% and 114%, the viability, T/C (compound 3.16 µM) was 84% and 93.9% and 105% and the viability, T/C (compound 10 µM) was 74.8% and 83.1% and 86.3%. For the same compound, the IC50 (curve of compound) was over 10 µM.

In the case of CNCc1ccc(-c2[nH]c3cc(F)cc4c3c2CCNC4=O)cc1, the viability, T/C (compound 0.0316 µM) is reported as 94% and 107% and 86.8%, the viability, T/C (compound 0.1 µM) is reported as 89.3% and 94.2% and 86.3% and the viability, T/C (compound 0.316 µM) is reported as 113% and 102% and 114%. For the same compound, the viability, T/C (compound 1 µM) was 117% and 101% and 95.7%, the viability, T/C (compound 3.16 µM) was 128% and 105% and 116% and the viability, T/C (compound 10 µM) was 125% and 115% and 151%. The IC50 (curve of compound) was over 10 µM.

— PubChem BioAssay AID1963852 (Molecular Pharmacology Branch, DTP, NCI, 2024)
